Patent US8193377B2, “(−)-epigallocatechin gallate derivatives for inhibiting proteasome” (The Hong Kong Polytechnic University, priority 2004, dated 2012)

Experiments:
[1] = molecular target: T1, purified rabbit 20s proteasome (Oryctolagus cuniculus, UniProt G1T4Q9); assay: Inhibition of chymotrypsin-like activity of purified 20S proteasome; assay type: biochemical; conditions: Suc-Leu-Leu-Val-Tyr-AMC, 2 h incubation, Table 1; read-out: IC50 (μM), unprotected
T1 construct: purchased Boston Biochem (Cambridge, Mass.)
T1 sequence (G1T4Q9 1-263): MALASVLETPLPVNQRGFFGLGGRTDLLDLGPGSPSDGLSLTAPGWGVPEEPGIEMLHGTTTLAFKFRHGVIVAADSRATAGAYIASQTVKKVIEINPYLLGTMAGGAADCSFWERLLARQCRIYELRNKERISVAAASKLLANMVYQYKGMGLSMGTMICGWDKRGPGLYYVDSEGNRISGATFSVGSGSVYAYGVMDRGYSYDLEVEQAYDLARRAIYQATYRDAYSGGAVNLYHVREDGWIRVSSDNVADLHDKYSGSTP
Procedure: Measurement of the chyrnotrypsin-like activity of the 20s proteasome was performed by incubating 0.5 μg of purified rabbit 20s proteasome with 40 μM fluorogenic peptide substrate, Suc-Leu-Leu-Val-Tyr-AMC, with or without various concentrations of natural and synthetic tea polyphenols as described previously (Nam S et. al.).
In order to test this hypothesis, proteasome activity was tested both in vitro and in intact Jurkat T cells with either 1 or (−)-EGCG (as a positive control). First, 1 and commercial (−)-EGCG were dissolved in DMSO and their effects on the chymotrypsin-like activity of purified 20S proteasomes were measured. […] In contrast, (−)-EGCG at 10 μM inhibited 80-90% of the proteasomal chymotrypsin-like activity. Therefore, as predicted, 1 outside of a cellular system is not a proteasome inhibitor.
Up to 25 μM of all protected and unprotected compounds were incubated with a purified 20s proteasome and a fluorogenic substrate for chyrnotrypsin activity for 30 min. The half-maximal inhibitory concentration or IC50 was then determined. […] This is consistent with the results above.

[2] = molecular target: 20S prokaryotic proteasome (UniProt Q9P992); assay: Table 2: effects of tea polyphenols on 20S prokaryotic proteasome activities; assay type: biochemical; conditions: Table 2, This work
Procedure: To further examine the effects of B-ring —OH group deletion on proteasome-inhibitory and cell death-inducing abilities, we synthesized several novel EGCG analogs with eliminated —OH groups on the B-ring as well as their putative prodrugs, the peracetate-protected counterparts. By using a purified 20S proteasome and a chymotrypsin-like fluorogenic substrate, the proteasome-inhibitory effects of the following unprotected polyphenol analogs are determined: […]

[3] = molecular target: T2, proteasomal chymotrypsin-like activity in Jurkat T cells (Homo sapiens, UniProt P28074); assay: Proteasomal chymotrypsin-like activity in intact Jurkat T cells / their lysates; assay type: cell-based; conditions: 25 μM, 24 h, Jurkat T
T2 construct: measurement of the proteasomal chymotrypsin-like activity in the prepared lysates; endogenous in cells; host or cells: Jurkat T cells (human leukemia)
T2 sequence (P28074 60-263): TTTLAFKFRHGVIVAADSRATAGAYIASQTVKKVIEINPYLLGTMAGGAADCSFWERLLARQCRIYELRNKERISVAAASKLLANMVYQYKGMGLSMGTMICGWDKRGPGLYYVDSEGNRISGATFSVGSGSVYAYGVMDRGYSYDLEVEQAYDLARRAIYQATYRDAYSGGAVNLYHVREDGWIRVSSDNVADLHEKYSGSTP
Procedure: (§1) VA-13 or WI-38 cells were grown in 24 well plates (2 ml/well) to 70-80% confluency, followed by 24 h treatment with […] (−)-EGCG, 2, or 2a. […] Suc-Leu-Leu-Val-Tyr-AMC substrate was then added for 2.5 h at 37° C. and the chyrnotrypsin-like activity was measured as described above. Alternatively, cells were treated with each compound at 25 μM for 4 or 24 h, and harvested and lysed. Suc-Leu-Leu-Val-Tyr-AMC (40 μM) was then incubated with the prepared cell lysates for 2.5 h and the chymotrypsin-like activity was measured as described above.
If 1 converts to (−)-EGCG inside the cells, proteasome inhibition in vivo should be detected. To examine this possibility, human Jurkat cells was treated with 25 μM of 1 or (−)-EGCG for 12 or 24 h, followed by measurement of proteasome activity by using a chymotrypsin-like specific fluorogenic substrate in intact cells (FIG. 6a) or Western blot for ubiquinated proteins (FIG. 6b). […] To analyze the intracellular level of polyubiquitinated proteins, cells were lysed after 12 hours incubation and subjected to Western blotting. […] It is possible that the amount of EGCG generated from 1, and thus its biological activity inside the cells depends on a combination of factors: the relative permeability of 1 into the cells, the amount of esterase enzymes and the amount of anti-oxidants that may be present in the cells at any time.
To determine whether the unprotected and protected polyphenol analogs could inhibit the proteasomal activity in intact cells, leukemia Jurkat T cells were treated with each compound at 25 μM for 4 and 24 h, followed by collection of cell pellets and measurement of the proteasomal chymotrypsin-like activity in the prepared lysates.

[4] = test system: caspase-3 activity in Jurkat T cells; assay: Induction of caspase-3 activity (Ac-DEVD-AMC) in Jurkat T cells; assay type: cell-based, human; conditions: 25 μM, 4 h
Procedure: Cells were treated with each compound at 25 μM for 4 or 24 h, and then harvested and lysed. Ac-DEVD-AMC (40 μM) was added to the cell lysates for 2.5 h and the caspase-3 activity.
(§2) To determine if the cell death observed (FIG. 16) was due to the induction of apoptosis, a similar experiment was performed in Jurkat T cells, followed by measurement of caspase-3 activation and PARP cleavage.

[5] = test system: ubiquitinated proteins, Bax, p27, IκBα in Jurkat T cells; assay: Western blot for ubiquitinated proteins and proteasome targets (Bax, p27, IκBα) in Jurkat T cells; assay type: cell-based, human; conditions: 25 μM, 24 h
Method in brief: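 Jurkat T cells exposed to 25 μM compound for 4 or 24 h; whole-cell extracts probed by Western blot with specific antibodies to ubiquitinated proteins, IκBα, Bax and p27. Actin served as loading control; protein accumulation expressed as fold increase.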

Jurkat T cells [6] = assay: Trypan blue cell death assay in Jurkat T cells; assay type: cell-based, human; conditions: 25 μM, 24 h
Jurkat T cells [7] = assay: Western blot for PARP cleavage in Jurkat T cells; assay type: cell-based, human; conditions: 25 μM, 24 h
Procedure: (§3) Whole cells extracts were prepared as described previously (An B, Goldfarb R H, Siman R, Dou Q P. Novel dipeptidyl proteasome inhibitors overcome Bc1-2 protective function and selectively accumulate the cyclin-dependent kinase inhibitor p27 and induce apoptosis in transformed, but not normal, human fibroblasts. Cell Death Differ 1998; 5: 1062-75.). Analysis of Bax, IKBa, p27, PAW, and ubiquitinated protein expression were performed using monoclonal or polyclonal antibodies according to previously reported protocols (An B et. al.).
(§4) It has been shown that proteasome inhibition can induce apoptosis in a wide variety of cancer cells, but not in normal, non-transformed cells (An B et al). Jurkat T cells are treated with 25 μM of each of the selected polyphenols and their protected analogs for 24 h to investigate their abilities to induce apoptotic cell death. […] The unprotected 2 induced much less apoptosis (21%), while 25 μM VP-16, used as a positive control, induced 92% apoptosis (FIGS. 10C and 10D). Counterstain with DAPI, which binds to the minor groove in A-T rich regions of DNA, was decreased drastically in apoptotic cells (FIG. 10C), consistent with DNA fragmentation in late stage apoptosis.
as §2

VA-13 cells [8] = assay: Immunostaining of apoptotic cells with anti-cleaved PARP-FITC; assay type: cell-based, human; conditions: 25 μM, 24 h
Procedure: Immunostaining of apoptotic cells was performed by addition of a FITC-conjugated polyclonal antibody that recognizes cleaved poly(ADP-ribose) polymerase (PARP) and visualized on an Axiovert 2 5 (Zeiss; Thornwood, N.Y.) microscope. Cells were grown to about 80% confluency in 60 mm dishes. VA-13 cells were then treated with VP-16, 2, or 2a (25 μM) for 24 h. Following treatment, both suspension and adhering cells were collected and washed twice in PBS pH 7.4. The cells were washed between all steps listed below and all washes are 1 min duration with PBS. Cells were then fixed in ice-cold 70% ethanol, permeabilized in 0.1% Triton-X-100 and blocked for 30 min in 1% bovine serum albumin (BSA) at room temperature. Incubation with the primary FITC-conjugated-p85/PARP antibody was for 30 min at 4° C. in the dark with mild shaking. Cell suspension was then transferred to glass slides in the presence of Vector Shield mounting medium with DAPI. Images were captured using AxioVision 4.1 and adjusted using Adobe Photoshop 6.0 software. Cell death was quantified by counting the number of apoptotic cells over the total number of cells in the same field. Data are mean of duplicate experiments ±SD.
as §4

MCF-7 cells = assay: MTT assay; assay type: cell-based, human; conditions: 24 h
Procedure: MTT was used to determine effects of polyphenols on overall proliferation of tumor cells. Human breast MCF-7 cells were plated in a 96 well plate and grown to 70-80% confluency, followed by addition of analogs for 24 h. MTT (1 mg/ml) in PBS was then added to wells and incubated at 37° C. for 4 hours to allow for complete cleavage of the tetrazolium salt by metabolically active cells. Next, the MTT was removed and 100 μl of DMSO was added and colorimetric analysis performed using a multilabel plate reader at 560 nm (Victor^3; Perkin Elmer). Absorbance values plotted are the mean from triplicate experiments.
Treated breast cancer (MCF-7) cells were then treated with 5 or 25 μM of peracetate-protected analogs for 24 h, followed by MTT analysis to determine their effects on cell proliferation. Compound 1 at 25 μM inhibited cellular proliferation by 40% (FIG. 11A).

LNCaP cells [9] = assay: Apoptotic morphological changes, phase contrast; assay type: cell-based, human; conditions: 25 μM, 24 h
LNCaP cells [10] = assay: Soft agar colony formation assay; assay type: cell-based, human; conditions: 25 μM once at plating, 21 days
[11] = test system: ubiquitin-conjugated proteins in LNCaP cells; assay: Western blot for ubiquitin-conjugated proteins in LNCaP cells; assay type: cell-based, human; conditions: 25 μM, 24 h
Procedure: as §3
To determine if acetate-protected analogs are potent proteasome inhibitors in other cancer cell systems, prostate cancer LNCaP cells were treated for 24 h with 25 μM of (−)-EGCG, 1, 2a, or 3a, with DMSO as a control.

[12] = molecular target: T3, proteasome in VA-13 cells (Homo sapiens, UniProt P28074); assay: Chymotrypsin-like proteasome activity in intact VA-13 cells; assay type: cell-based; conditions: 25 μM, 24 h
T3 construct: endogenous in cells; host or cells: VA-13 (SV40-transformed human fibroblasts)
Procedure: as §1
The ability to induce apoptosis in tumor cells, but not normal cells is an important measure for novel anti-cancer drugs. To determine whether the protected compounds also affect normal cells, both VA-13 and WI-38 cells were treated with 25 μM of (−)-EGCG, 2, or 2a for 24 h and examined proteasome activity, nuclear morphological changes, and detachment. A differential decrease was found in the chyrnotrypsin-like activity of the proteasome in VA-13 cells over normal WI-38 cells (FIG. 12A). […] Conversely, the proteasome activity in WI-38 cells was decreased by only −5% with all three polyphenol treatments.

VA-13 cells [13] = assay: Nuclear staining (Hoechst) for apoptotic morphology, VA-13; assay type: cell-based, human; conditions: 25 μM, 24 h
Procedure: After each drug treatment, both detached and attached VA-13 and WI-38 cells were stained Hoechst 33342 to assess for apoptosis. Briefly, cells were washed 2× in PBS, fixed for 1 h with 70% ethanol at 4° C., washed 3× in PBS, and stained with […] Hoechst for 30 min in the dark at room temperature. Detached cells were plated on a slide and attached cells were visualized on the plate with a fluorescent microscope at 10× or 40× resolution (Zeiss, Germany). Digital Scientific obtained images with AxioVision 4.1 and adjusted using Adobe Photoshop 6.0.
Next, apoptotic nuclear morphology is examined after treatment with natural (−)-EGCG, 2, and 2a (FIG. 12B). […] A comparison among all the protected analogs was then performed using 25 μM for 24 h. […] All of the protected analogs induced apoptosis in transformed (VA-13), but not normal (WI-38) cells (FIGS. 12B and 12C).

YT cells = assay: Western blot in non-transformed natural killer YT cells compared with Jurkat T cells; assay type: cell-based, human; conditions: 25 μM, 24 h

20S prokaryotic proteasome, sequence (Q9P992 whole entry): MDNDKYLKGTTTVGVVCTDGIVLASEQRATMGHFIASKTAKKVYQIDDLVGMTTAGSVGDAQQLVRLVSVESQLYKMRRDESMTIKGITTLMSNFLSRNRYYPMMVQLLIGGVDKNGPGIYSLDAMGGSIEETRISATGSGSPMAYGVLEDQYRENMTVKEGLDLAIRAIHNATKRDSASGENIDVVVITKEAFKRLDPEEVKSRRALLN

Structure (SMILES)	IC50 [1] [µM]	IC50 [2] [nM]	inhibition of chymotrypsin-like activity in lysates of treated cells [3] [%]	increase in caspase-3 activity [4] [fold]	accumulation of p27 [5]	cell death (trypan blue) (Jurkat T cells [6]) [%]	apoptosis-specific PARP cleavage (Jurkat T cells [7])	apoptotic cells (p85 cleaved PARP) (VA-13 cells [8]) [%]	inhibition of cellular proliferation (MCF-7 cells; 5 μM) [%]	inhibition of cellular proliferation (MCF-7 cells; 25 μM) [%]	apoptotic morphological changes (LNCaP cells [9])	colony formation in soft agar (LNCaP cells [10])	ubiquitin-conjugated proteins [11]	decrease in proteasome chymotrypsin-like activity [12] [%]	apoptotic nuclear morphology (VA-13 cells [13])	apoptosis (PARP cleavage), Jurkat T versus YT cells (YT cells)
O=C(O[C@@H]1Cc2c(O)cc(O)cc2O[C@@H]1c1ccc(O)cc1)c1cc(O)c(O)c(O)c1 [Compound 6, (−)-(2R,3R)-5,7-dihydroxy-2-(4-hydroxyphenyl)chroman-3-yl 3,4,5-trihydroxybenzoate]	2.69	2690	30	4	–	–	–	–	–	–	–	–	–	–	–	–
CC(=O)Oc1cccc(C(=O)O[C@@H]2Cc3c(OC(C)=O)cc(OC(C)=O)cc3O[C@H]2c2cc(OC(C)=O)c(OC(C)=O)c(OC(C)=O)c2)c1 (relative stereo) [Compound 2a, (2S*,3R*)-trans-5,7-Bis(acetyloxy)-2-[3,4,5-tris(acetyloxy)phenyl]chroman-3-yl 3-acetyloxybenzoate]	–	–	–	–	Accumulation of p27	99	induced apoptosis-specific PARP cleavage	73	50	70	dramatic round-up, detachment, and cellular fragmentation	most potent inhibitors of colony formation	greatest increase	92	markedly induced apoptosis	only Jurkat cells underwent apoptosis
